# Test results reported in patent US7022737B2, “Manipulating nitrosative stress to kill pathologic microbes, pathologic helminths and pathologically proliferating cells or to upregulate nitrosative stress defenses” (Duke University, priority 1996, dated 2006).
# Columns and labels:
# [1] = molecular target: T1, E. coli gamma-glutamylcysteine synthetase (Escherichia coli, UniProt P0A6W9); experiment: Inactivation of E. coli gamma-GCS by homocysteine sulfoximines (preincubation with ATP, residual activity by coupled PK/LDH assay); format: biochemical; settings: 100 μM inhibitor
# T1 construct: made in house
# Method: E. coli gamma-GCS was isolated from bacterial cells engineered to overexpress the enzyme; the isolation procedure was similar to that used previously to isolate mammalian gamma-GCS. […] The enzyme was assayed in reaction mixtures (final volume=1.0 ml) containing: 150 mM Tris·HCl, pH 8.2, 100 mM KCl, 25 mM MgCl2, 7.5 mM ATP, 7.5 mM phosphoenolpyruvate, 0.3 mM EDTA, 10 mM L-glutamate, 10 mM L-α-aminobutyrate (an L-cysteine analog), 0.3 mM NADH, 5 IU pyruvate kinase, and 5 IU lactate dehydrogenase. Reaction was initiated by adding gamma-GCS; in control studies, L-α-aminobutyrate was omitted from the reaction mixture. In this assay, pyruvate kinase (PK) and lactate dehydrogenase (LDH) are added in excess to detect formation of ADP, one of the products of the gamma-GCS reaction. The relevant enzyme reactions are shown as equations 1–3 below. Oxidation of NADH to NAD^+ is followed and quantitated spectrophotometrically at 340 nm (1 μmol oxidation gives ΔOD=−6.2) and is directly proportional to product formation by gamma-GCS. [drawing 2]
# Inhibition by homocysteine sulfoximines was carried out by preincubating the E. coli gamma-GCS with potential inhibitors in the presence of ATP and then removing aliquots of that mixture at specific times and assaying for residual activity using the assay procedure described above. The preincubation reaction mixtures contained (final volume=400 μl) the following: 210 mM Tris·HCl, pH 8.2, 142 mM KCl, 36 mM MgCl2, 10 mM ATP, 0.4 mM EDTA, various amounts of sulfoximine, and gamma-GCS. At intervals, 50 μl aliquots were removed and added to 1.0 ml assay reaction mixtures to determine residual activity spectrophotometrically. Results of a study indicate that E. coli gamma-GCS loses about 27% of its activity over 30 minutes in the absence of added inhibitors; this loss of activity represents an inherent instability in the enzyme when incubated under these reaction conditions in this particular experiment. […]
# small cell lung cancer = experiment: Patients with small cell lung cancer; format: in vivo; settings: cyclophosphamide, NO-substituted doxirubicin IV and BSO 4 mmol/kg IV four times/day; chest X-ray in two months
# Method: A person with a 80 pack-year history of smoking presents with hemoptosis and weight loss. […] The patient is given a combination therapy of cyclophosphamide (750 mg/m^2) plus NO-substituted doxirubicin (40 mg/m^2) and vincristine (2 mg) (all administered i.v.). The therapeutic regimen is repeated once at three weeks.
# A person with a 20 pack/year history of smoking presents with cough. […] The patient receives cyclophosphamide (750 mg/m^2 and NO-substituted doxirubicin (administered IV)). The patient also receives L-buthionine-S-sulfoximine, i.e., BSO (4 mmol/kg IV four times/day).
# restenosis [2] = experiment: Patients with coronary stenosis treated to prevent restenosis; format: in vivo
# From the text: BSO therapy is continued for one week.
# A person with blue eyes and gray hair presents with chest pain. […] The patient undergoes balloon angioplasty and placement of a Palmaz-Schatz stent, which is P^32-implanted and coated with a cyclodextran polymer to which BSO is attached by an ester linkage.
# A patient similar to the one described above undergoes balloon angioplasty and placement of a Palmaz-Schatz stent which is coated with cyclodextran polymer to which ethyl maleate is attached by an ester linkage. […]
# A person with restenosis six months post angioplasty has a Palmaz-Schatz stent placed. The stent is coated with a porous polymer containing 10% of the siderophore ferrioxamine B and 0.1% each of interleukin-1 and interferon-gamma. The latter agents induce the local expression of the inducible isoform of nitric oxide synthase. […]
# [3] = system: benign prostatic hypertrophy; experiment: Patients with benign prostatic hypertrophy; format: in vivo
# From the text: A person presents with a history of urinary hesitancy and multiple awakenings during the night. They are given a diagnosis of benign prostatic hypertrophy. Under stereotactic guidance, the patient's enlarged prostate gland is implanted with several porus polymer pellets designed to slowly release L-buthionine-S-sulfoximine (1 μmol/hr) and S-nitrosocysteine (1 μmol/hr). […] They then have nearly normal urine flow and usually wakes no more than once per night.
# A similar patient with benign prostatic hypertrophy and very marked enlargement of their prostate is treated with NO-substituted finasteride (NO-substituted Proscar; 5 mg/day). NO-substitution is accomplished by replacement of the tert-butyl amine moiety of finasteride with S-nitroso-β-thio-tert-butyl amine.
# A person with benign prostatic hypertrophy is treated with Finisteride (Proscar: 5 mg/day) and oral buthionine-S-sulfoximine at a dose of 10 mmol/kg four time/day.
# [4] = system: metastatic malignant melanoma; experiment: Patient with metastatic malignant melanoma; format: in vivo; settings: L-buthionine-S-sulfoximine 2 mmol/kg p.o. every 4 hours and hydroxyurea 10 mg/kg p.o., one week
# Method: A person […] and a history of surgery five years previously to remove malignant melanotic nevi from their upper back and chest is found to have blood in their stool on routine physical examination. […] The patient is administered L-buthionine-S-sulfoximine (2 mmol/kg) p.o. every 4 hours for one week and is given 10 mg/kg of hydroxyurea p.o. 1 hour after every third dose of L-buthionine-S-sulfoximine. […] The patient shown no further evidence of metastases during a six month follow-up.
# trypanosomes = experiment: Patient with trypanosome infection; format: in vivo; settings: L-buthionine-S-sulfoximine 3 mmol/kg p.o. every 4 hours and S-nitrosoglutathione iv 10 mg/kg every 8 hours, one week
# Method: A person presents with high fever, moderate lymphadenopathy and reports that they have lost 40 pounds in the last month, two months after returning from a safari in sub-Saharan Africa. On questioning, the patient reports having developed during the safari an ulcer on their forearm two days following a bite by a fly. […] The patient is hospitalized and given L-buthionine-S-sulfoximine at a dose of 3 mmol/kg p.o. every 4 hours for one week. In addition, the patient receives S-nitrosoglutathione iv at a dose of 10 mg/kg every 8 hours for one week.
# restenosis [5] = experiment: Patients with coronary stenosis treated to prevent restenosis; format: in vivo; settings: BSO 4 mmol/kg four times a day intracoronary for one week, 32P-implanted Palmaz-Schatz stent
# T1 sequence (P0A6W9 whole entry): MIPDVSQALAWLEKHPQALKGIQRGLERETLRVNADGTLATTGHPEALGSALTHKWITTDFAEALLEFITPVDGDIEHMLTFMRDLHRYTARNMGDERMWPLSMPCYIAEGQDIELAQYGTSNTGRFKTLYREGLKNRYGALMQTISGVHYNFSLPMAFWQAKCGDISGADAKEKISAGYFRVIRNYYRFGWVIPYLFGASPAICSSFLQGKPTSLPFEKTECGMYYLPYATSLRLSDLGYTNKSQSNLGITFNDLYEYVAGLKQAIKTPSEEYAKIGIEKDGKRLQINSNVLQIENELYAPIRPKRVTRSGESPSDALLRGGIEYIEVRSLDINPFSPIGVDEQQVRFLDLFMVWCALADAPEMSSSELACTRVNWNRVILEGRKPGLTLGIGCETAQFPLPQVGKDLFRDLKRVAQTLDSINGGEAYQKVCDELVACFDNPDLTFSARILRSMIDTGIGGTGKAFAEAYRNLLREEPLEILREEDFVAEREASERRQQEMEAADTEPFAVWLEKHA
smiles,measurement,setting,value
CCCCS(=N)(=O)CC[C@H](N)C(=O)O (stereo partly drawn) [L-buthionine-S-sulfoximine],inactivation of E. coli gamma-GCS,[1]; 10 min preincubation,89%
same,inactivation of E. coli gamma-GCS,[1]; 30 min preincubation,virtually complete inactivation
same,clinical outcome,small cell lung cancer,decrease in size of the mass
same,clinical outcome,restenosis [2]; P^32-implanted stent coated with cyclodextran polymer with BSO attached by ester linkage,clinical restenosis does not occur
same,clinical outcome,"restenosis [2]; verapamil 80 mg three times a day p.o., BSO 4 mmol/kg i.v. four times a day, NO-releasing polymer stent",repeat angiogram at six months shows no restenosis
same,clinical outcome,[3]; Finisteride 5 mg/day and oral buthionine-S-sulfoximine 10 mmol/kg four time/day,symptoms of hesitancy improve significantly over two months
same,clinical outcome,[3]; prostate-implanted polymer pellets releasing each agent at 1 μmol/hr,symptoms improve over a period of three weeks
same,reduction in size of metastatic tumor,[4],30%
same,clinical outcome,trypanosomes,blood smear is free of trypanosomes
same,clinical outcome,restenosis [5],repeat of their angiogram shows no restenosis
